Source: US6355799B1, “Substituted benzene compounds, process for their preparation, and herbicidal and defoliant compositions containing them” (ISK Americas Incorporated, priority 1997, dated 2002)

Columns and labels:
Format in all cases: in vivo
[1] = test system: redroot pigweed (Amaranthus retroflexus, AMARE); assay: Pre-emerge test, greenhouse herbicide activity screening; conditions: phytotoxicity rating 0-100, 14 days after application
In short: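 Herbicidal damage is scored 0 (none) to 100 (complete plant death) two weeks after a simulated field spray. Rates span 15–1000 g ai/ha, delivered in acetone at 187 l/ha. For post-emergence treatments, plants have 2–3 leaves and the spray carries 0.25% v/v non-ionic surfactant.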

[2] = test system: field corn (Zea mays L., var. Dekalb 535, CORN); assay: Pre-emerge test, crop safety; conditions: crop damage rating 0-100, 14 days after application
In short: (§1)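 Plants grown in 10 cm pots of sandy loam mix received acetone-dissolved compounds through a moving flat-fan nozzle. Doses ranged from 15 to 1000 g ai/ha. Pre-emerge pots were seeded one day earlier, post-emerge pots 8–21 days earlier. Fourteen days on, each pot was graded 0–100 for damage.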

[3] = test system: upland rice (Oryza sp., var. Tebonnet, RICE); assay: Pre-emerge test, crop safety; conditions: crop damage rating 0-100, 14 days after application
In short: as §1

[4] = test system: sicklepod (Cassia obtusifolia, CASOB); assay: Pre-emerge test, greenhouse herbicide activity screening; conditions: phytotoxicity rating 0-100, 14 days after application
From the text: (§2) A standard greenhouse herbicide activity screening system was used to evaluate the herbicidal efficacy and crop safety of these test compounds. Seven broadleaf weed species including redroot pigweed (Amaranthus retroflexus, AMARE, velvetleaf (Abutilon theophrasti, ABUTH), sicklepod (Cassia obtusifolia, CASOB), ivyleaf morningglory (Ipomoea hederacea, IPOHE), lambsquarters (Chenopodium album, CHEAL), common ragweed (Ambrosia artemisizfolia L., AMBEL), and cocklebur (Xanthium strumarium, XANST) were used as test species. Four grass weed species including green foxtail (Setaria viridis, SETVI), barnyardgrass (Echinochloa crus-galli, ECHCG), johnsongrass (Sorghum halepense, SORHA), and large crabgrass (Digitaria sanguinalis, DIGSA) were also used. In addition, three crop species, field corn (Zea mays L., var. Dekalb 535, CORN), soybean (Glycine max L., var. Pella 86, SOY), and is upland rice (Oryza sp., var. Tebonnet, RICE) were included.
(§3) All plants were grown in 10 cm square plastic pots which were filled with a sandy loam soil mix. For pre-emerge tests, seeds were planted one day prior to application of the test compounds. For post-emerge tests, seeds were planted 8-21 days prior to the test to allow emergence and good foliage development prior to application of the test substances. At the time of the post-emerge application, plants of all species were usually at the 2-3 leaf stage of development.
(§4) All test compounds Were dissolved in acetone and applied to the test units in a volume of 187 l /ha. Test materials were applied at rates ranging from 15 g ai/ha to 1000 g ai/ha using a track sprayer equipped with a TJ8001E even flow flat fan spray nozzle. Plants were arranged on a shelf so that the top of the canopy (post-emerge) or top of the soil surface (pre-emerge) was 40-45 cm below the nozzle. Pressurized air was used to force the test solution through the nozzle as it was mechanically advanced (via electrically driven chain drive) over the top of all test plants/pots. This application simulates a typical commercial field herbicide application.
(§5) In the post-emerge test, a commercial non-ionic surfactant was also included (0.25% v/v) to enhance wetting of the leaf surfaces of target plants. Immediately after application, test units of the pre-emerge applications were watered at the soil surface to incorporate the test materials. Subsequently, these test units were bottom-watered. Post-emerge test units were always bottom-watered.
(§6) At 14 days after application of the test materials, phytotoxicity ratings were recorded. A rating scale of 0-100 was used as previously described in Research Methods in Weed Science, 2nd edition, B. Truelove, Ed., Southern Weed Science Society, Auburn University, Auburn, Ala. 1977. Briefly, “0” corresponds to no damage and “100” corresponds to complete death of all plants in the test unit. This scale was used both to determine efficacy against weed species and damage to crop species. Herbicide activity data for various compounds of this invention, which are shown by compound No. in Tables 1-8, are shown in Tables 11 and 12.

[5] = test system: green foxtail (Setaria viridis, SETVI); assay: as above; conditions: phytotoxicity rating 0-100, 14 days after application
From the text: as §2, §3, §4, §5, §6

[6] = test system: velvetleaf (Abutilon theophrasti, ABUTH); assay: as above; conditions: phytotoxicity rating 0-100, 14 days after application
From the text: as §2, §3, §4, §5, §6

[7] = test system: barnyardgrass (Echinochloa crus-galli, ECHCG); assay: as above; conditions: phytotoxicity rating 0-100, 14 days after application
From the text: as §2, §3, §4, §5, §6

[8] = test system: large crabgrass (Digitaria sanguinalis, DIGSA); assay: as above; conditions: phytotoxicity rating 0-100, 14 days after application
From the text: as §2, §3, §4, §5, §6

[9] = test system: ivyleaf morningglory (Ipomoea hederacea, IPOHE); assay: as above; conditions: phytotoxicity rating 0-100, 14 days after application
From the text: as §2, §3, §4, §5, §6

[10] = test system: lambsquarters (Chenopodium album, CHEAL); assay: as above; conditions: phytotoxicity rating 0-100, 14 days after application
From the text: as §2, §3, §4, §5, §6

[11] = test system: sicklepod (Cassia obtusifolia, CASOB); assay: Post-emerge test, greenhouse herbicide activity screening; conditions: post-emerge, 14 days after application, rating scale 0-100
From the text: as §2, §3, §4, §5, §6

[12] = test system: green foxtail (Setaria viridis, SETVI); assay: as above; conditions: post-emerge, 14 days after application, rating scale 0-100
From the text: as §2, §3, §4, §5, §6

[13] = test system: velvetleaf (Abutilon theophrasti, ABUTH); assay: as above; conditions: post-emerge, 14 days after application, rating scale 0-100
From the text: as §2, §3, §4, §5, §6

[14] = test system: barnyardgrass (Echinochloa crus-galli, ECHCG); assay: as above; conditions: post-emerge, 14 days after application, rating scale 0-100
From the text: as §2, §3, §4, §5, §6

[15] = test system: large crabgrass (Digitaria sanguinalis, DIGSA); assay: as above; conditions: post-emerge, 14 days after application, rating scale 0-100
From the text: as §2, §3, §4, §5, §6

[16] = test system: ivyleaf morningglory (Ipomoea hederacea, IPOHE); assay: as above; conditions: post-emerge, 14 days after application, rating scale 0-100
From the text: as §2, §3, §4, §5, §6

[17] = test system: lambsquarters (Chenopodium album, CHEAL); assay: as above; conditions: post-emerge, 14 days after application, rating scale 0-100
From the text: as §2, §3, §4, §5, §6

[18] = test system: redroot pigweed (Amaranthus retroflexus, AMARE); assay: as above; conditions: post-emerge, 14 days after application
From the text: as §2, §3, §4, §5, §6

[19] = test system: field corn (Zea mays L., var. Dekalb 535, CORN); assay: Post-emerge test, crop safety; conditions: post-emerge, 14 days after application, rating scale 0-100
In short: (§7)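 Applied at 15–1000 g ai/ha from acetone in 187 l/ha spray volume. Post-emergence applications included 0.25% v/v non-ionic surfactant and reached plants sown 8–21 days before. Pre-emergence applications were incorporated by surface watering. Efficacy or crop damage was rated on a 0–100 scale after 14 days.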

[20] = test system: upland rice (Oryza sp., var. Tebonnet, RICE); assay: Post-emerge test, crop safety; conditions: post-emerge, 14 days after application, rating scale 0-100
In short: as §7

[21] = 63 g ai/ha, rating scale 0-100 (0 no damage, 100 complete death)
[22] = 250 g ai/ha, rating scale 0-100

Row | Structure (SMILES) | Pre-emerge Herbicidal Activity AMARE ([1]; 63 g ai/ha) | Pre-emerge Herbicidal Activity AMARE ([1]; 250 g ai/ha) | Pre-emerge Herbicidal Activity CORN ([2]; 63 g ai/ha) | Pre-emerge Herbicidal Activity CORN ([2]; 250 g ai/ha) | Pre-emerge Herbicidal Activity RICE ([3]; 63 g ai/ha) | Pre-emerge Herbicidal Activity RICE ([3]; 250 g ai/ha) | Pre-emerge Herbicidal Activity CASOB ([4]; 63 g ai/ha) | Pre-emerge Herbicidal Activity CASOB ([4]; 250 g ai/ha) | Pre-emerge Herbicidal Activity SETVI ([5]; 63 g ai/ha) | Pre-emerge Herbicidal Activity SETVI ([5]; 250 g ai/ha) | Pre-emerge Herbicidal Activity ABUTH ([6]; 63 g ai/ha) | Pre-emerge Herbicidal Activity ABUTH ([6]; 250 g ai/ha) | Pre-emerge Herbicidal Activity ECHCG ([7]; 63 g ai/ha) | Pre-emerge Herbicidal Activity ECHCG ([7]; 250 g ai/ha) | Pre-emerge Herbicidal Activity DIGSA ([8]; 63 g ai/ha) | Pre-emerge Herbicidal Activity DIGSA ([8]; 250 g ai/ha) | Pre-emerge Herbicidal Activity IPOHE ([9]; 63 g ai/ha) | Pre-emerge Herbicidal Activity IPOHE ([9]; 250 g ai/ha) | Pre-emerge Herbicidal Activity CHEAL ([10]; 63 g ai/ha) | Pre-emerge Herbicidal Activity CHEAL ([10]; 250 g ai/ha) | further results
1 | COc1c(Cl)cc(F)c(-n2c(=O)cc(C(F)(F)F)n(C)c2=O)c1NC(=O)OCc1ccc(C(F)(F)F)cc1 [4-43] | 10 | 60 | 0 | 0 | 0 | 10 | 0 | 40 | 0 | 70 | 20 | 50 | 0 | 10 | 0 | 60 | 0 | 10 | 30 | 80 | phytotoxicity rating CASOB ([11]; 63 g ai/ha): 50; phytotoxicity rating CASOB ([11]; 250 g ai/ha): 60; phytotoxicity rating SETVI ([12]; 63 g ai/ha): 0; phytotoxicity rating SETVI ([12]; 250 g ai/ha): 40; phytotoxicity rating ABUTH ([13]; 63 g ai/ha): 60; phytotoxicity rating ABUTH ([13]; 250 g ai/ha): 100; phytotoxicity rating ECHCG ([14]; 63 g ai/ha): 0; phytotoxicity rating ECHCG ([14]; 250 g ai/ha): 10; phytotoxicity rating DIGSA ([15]; 63 g ai/ha): 0; phytotoxicity rating DIGSA ([15]; 250 g ai/ha): 0; phytotoxicity rating IPOHE ([16]; 63 g ai/ha): 40; phytotoxicity rating IPOHE ([16]; 250 g ai/ha): 40; phytotoxicity rating CHEAL ([17]; 63 g ai/ha): 80; phytotoxicity rating CHEAL ([17]; 250 g ai/ha): 90; phytotoxicity rating AMARE [18, 21]: 70; phytotoxicity rating AMARE [18, 22]: 100; phytotoxicity rating CORN (crop damage) ([19]; 63 g ai/ha): 0; phytotoxicity rating CORN (crop damage) ([19]; 250 g ai/ha): 10; phytotoxicity rating RICE (crop damage) ([20]; 63 g ai/ha): 0; phytotoxicity rating RICE (crop damage) ([20]; 250 g ai/ha): 0
2 | COc1c(Cl)cc(F)c(-n2c(=O)cc(C(F)(F)F)n(C)c2=O)c1NC(=O)OCc1cccc(F)c1 [4-44] | 100 | 100 | 70 | 95 | 70 | 65 | 100 | 100 | 100 | 100 | 100 | 100 | 80 | 95 | 100 | 100 | 100 | 100 | 100 | 100 | phytotoxicity rating CASOB ([11]; 63 g ai/ha): 100; phytotoxicity rating CASOB ([11]; 250 g ai/ha): 100; phytotoxicity rating SETVI ([12]; 63 g ai/ha): 95; phytotoxicity rating SETVI ([12]; 250 g ai/ha): 90; phytotoxicity rating ABUTH ([13]; 63 g ai/ha): 100; phytotoxicity rating ABUTH ([13]; 250 g ai/ha): 100; phytotoxicity rating ECHCG ([14]; 63 g ai/ha): 70; phytotoxicity rating ECHCG ([14]; 250 g ai/ha): 90; phytotoxicity rating DIGSA ([15]; 63 g ai/ha): 70; phytotoxicity rating DIGSA ([15]; 250 g ai/ha): 95; phytotoxicity rating IPOHE ([16]; 63 g ai/ha): 100; phytotoxicity rating IPOHE ([16]; 250 g ai/ha): 100; phytotoxicity rating CHEAL ([17]; 63 g ai/ha): 100; phytotoxicity rating CHEAL ([17]; 250 g ai/ha): 100; phytotoxicity rating AMARE [18, 21]: 100; phytotoxicity rating AMARE [18, 22]: 100; phytotoxicity rating CORN (crop damage) ([19]; 63 g ai/ha): 90; phytotoxicity rating CORN (crop damage) ([19]; 250 g ai/ha): 100; phytotoxicity rating RICE (crop damage) ([20]; 63 g ai/ha): 70; phytotoxicity rating RICE (crop damage) ([20]; 250 g ai/ha): 80
3 | COc1c(Cl)cc(F)c(-n2c(=O)cc(C(F)(F)F)n(C)c2=O)c1NC(=O)OCc1ccc(OC(F)(F)F)cc1 [4-45] | 30 | 100 | 0 | 20 | 0 | 10 | 0 | 40 | 0 | 50 | 50 | 90 | 0 | 40 | 0 | 70 | 10 | 40 | 50 | 95 | phytotoxicity rating CASOB ([11]; 63 g ai/ha): 80; phytotoxicity rating CASOB ([11]; 250 g ai/ha): 80; phytotoxicity rating SETVI ([12]; 63 g ai/ha): 30; phytotoxicity rating SETVI ([12]; 250 g ai/ha): 60; phytotoxicity rating ABUTH ([13]; 63 g ai/ha): 100; phytotoxicity rating ABUTH ([13]; 250 g ai/ha): 100; phytotoxicity rating ECHCG ([14]; 63 g ai/ha): 20; phytotoxicity rating ECHCG ([14]; 250 g ai/ha): 20; phytotoxicity rating DIGSA ([15]; 63 g ai/ha): 10; phytotoxicity rating DIGSA ([15]; 250 g ai/ha): 20; phytotoxicity rating IPOHE ([16]; 63 g ai/ha): 95; phytotoxicity rating IPOHE ([16]; 250 g ai/ha): 100; phytotoxicity rating CHEAL ([17]; 63 g ai/ha): 100; phytotoxicity rating CHEAL ([17]; 250 g ai/ha): 100; phytotoxicity rating AMARE [18, 21]: 90; phytotoxicity rating AMARE [18, 22]: 95; phytotoxicity rating CORN (crop damage) ([19]; 63 g ai/ha): 10; phytotoxicity rating CORN (crop damage) ([19]; 250 g ai/ha): 20; phytotoxicity rating RICE (crop damage) ([20]; 63 g ai/ha): 10; phytotoxicity rating RICE (crop damage) ([20]; 250 g ai/ha): 20
